{"source": "paper PMC9777073", "about": "“A Fenchone Derivative Effectively Abrogates Joint Damage Following Post-Traumatic Osteoarthritis in Lewis Rats” (Cells, 2022)", "molecular_target": "T1, cannabinoid receptor 1 (CB1) (Homo sapiens, UniProt P21554)", "T1 construct": "gene CNR1", "T1 sequence (P21554 whole entry)": "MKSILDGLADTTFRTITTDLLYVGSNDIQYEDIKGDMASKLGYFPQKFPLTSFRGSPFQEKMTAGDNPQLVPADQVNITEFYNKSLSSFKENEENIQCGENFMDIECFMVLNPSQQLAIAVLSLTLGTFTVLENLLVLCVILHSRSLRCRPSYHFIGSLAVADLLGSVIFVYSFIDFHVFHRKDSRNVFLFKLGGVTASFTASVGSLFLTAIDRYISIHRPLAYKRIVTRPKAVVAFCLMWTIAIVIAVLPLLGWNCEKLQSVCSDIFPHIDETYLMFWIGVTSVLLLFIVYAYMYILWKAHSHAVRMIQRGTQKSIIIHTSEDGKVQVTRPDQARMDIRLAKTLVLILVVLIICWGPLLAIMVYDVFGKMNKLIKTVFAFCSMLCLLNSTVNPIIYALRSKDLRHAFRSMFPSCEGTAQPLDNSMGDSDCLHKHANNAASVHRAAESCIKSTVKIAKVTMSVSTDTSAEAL", "assay": "cell-based", "parameters": "species or system CHO-K1", "conditions": "read-out: Antagonist IC50 RC50", "excerpt": "For agonist analysis, we monitored “evaluation of potency” (EC50) and % efficacy (Max response), which were reflected by increased intracellular cAMP levels detected in cAMP Hunter™ Gs cell lines (CHO-K1 lines) overexpressing human CNR1 (i.e., gene encoding CB1) or CNR2 (i.e., gene encoding CB2). Alternatively, antagonist activity (i.e., inhibitory concentration or IC50) utilized a cAMP Hunter™ Gi cell lines (CHO-K1 lines), detecting an intracellular reduction in cAMP levels in cells overexpressing CNR1 and CNR2. These cell lines are designed to be used in conjunction with the HitHunter® cAMP Assay Detection Kit. Specifically, for agonist assay, cells were subjected to positive controls, known to activate the increase in cAMP for both receptors (agonist control 20 µM Forskolin for CB1 and 25 µM Forskolin for CB2). […] Prior to testing the cell, plating media were exchanged with 10 uL of Assay buffer (HBSS + 10 mM HEPES). Agonist results are expressed as percent efficacy relative to the maximum response of the control ligand (%Effc or EC50), while antagonist results are expressed as percent inhibition of the control ligand (IC50) normalized to the unantagonized vehicle."}
{"smiles": "Cc1c(C(=O)NN2CCOCC2)nn(-c2ccc(Cl)cc2Cl)c1-c1ccc(I)cc1", "note": "[AM281]", "values": [{"measurement": "IC50", "value": 22.4, "unit": "nM"}]}
